Laboratory results: patent US20240024262A1, “USE OF VALERIC ACID IN PREPARATION OF DRUG FOR PREVENTING AND TREATING DIABETES” (Harbin Medical University, priority 2022, published 2024)

Columns and labels:
[1] = system: High-fat fed C57BL6/J mice; test: High-fat fed C57BL/6J mice, valeric acid gavage: body weight, food intake, blood glucose homeostasis (OGTT); format: in vivo
Excerpt: In an animal experiment of high-fat model mice at a first stage, 6-8-week-old male C57BL/6J mice without specific pathogens (SPF grade) are firstly purchased from Liaoning Changsheng Biotechnology Co., Ltd., Experimental animal feeds are ordered from Beijing keaoxieli Feed Co., Ltd., including a mouse AIN-93M maintenance feed and a high-fat feed with a fat energy supply ratio of 45%; the nutrient compositions of the two feeds are in accordance with a rodent experimental animal feed formula recommended by U.S. Department of agriculture; and the AIN-93M maintenance feed is stored at a room temperature, and the high-fat feed with the energy supply ratio of 45% is stored at the low temperature of −20° C.
The animal experimental research was implemented in accordance with the rules and regulations required by Experimental Animal Management Committee of Harbin Medical University, and animals were raised in a laboratory of Clean Experimental Animal Center of School of Public Health of Harbin Medical University. The laboratory conditions are as follows: a temperature is 21.0 (±1.5) degrees Celsius, a relative humidity is 50 (±5)%, lighting is alternately performed for 12:12 hours by using a fluorescent lamp, the feed is freely taken, and distilled water is freely drunk. After being received, 6-8-week-old C57BL6/J mice as a kind of SPF experimental animals were fed in a single cage, and were arranged to freely drink the distilled water and uptake an animal feed for a week of adaptive feeding. Subsequently, the mice were weighed and randomly divided into 4 experimental groups according to the weights of the mice; and the 4 experimental groups were fed with the AIN-93M maintenance feed and the 45% high-fat feed respectively, and were treated with phosphate buffer salt solution (PBS) and different metabolite solutions by oral gavage. […]
During the feeding period of experimental animals, a scattered food amount and a leftover food amount of mice were weighed with an electronic scale and recorded and fresh feeds were changed every day, and a daily food intake was calculated. […] The weights of the mice were weighed and recorded once a week, and a clean animal bedding subjected to high-pressure disinfection was replaced. […] According to conversion of oral and intravenous doses in Pharmacological Experimental Methodology edited by Shuyun Xu and an equivalent dose ratio of rats and mice, a dose of the valeric acid is finally determined as 75 mg/kg which is approximately equal to ⅛ of a half lethal dose of the valeric acid, meeting a safety range in toxicology. […]

[2] = system: Leptin receptor gene deficient db/db mice; test: Type 2 diabetes model db/db mice: food intake, body weight, blood glucose-related indexes; format: in vivo
Procedure: The following drugs are taken as comparative examples: • 1. Comparative example where an existing drug serves as a positive control • (1) High-fat fed C57BL6/J mice • Sodium butyrate gavage intervention group: 75.0 mg/kg • (2) Type 2 diabetes model db/db mice • Sodium butyrate gavage intervention group: 75.0 mg/kg • Harmine gavage intervention group: 10.0 mg/kg • Metformin gavage intervention group: 100.0 mg/kg • (3) Cell line of mouse insulinoma islet β cells (Beta-TC-6) • Sodium butyrate intervention group: 1.0 mmol/L • Harmine intervention group: 10.0 μmmol/L • (4) Mouse islet β primary cell • Sodium butyrate intervention group: 1.0 mmol/L • Harmine intervention group: 10.0 μmmol/L • 2. A control test is taken as a comparative example • (1) High-fat fed C57BL6/J mice • Ordinary feed feeding group, and high-fat feed PBS gavage group • (2) Type 2 diabetes model db/db mice • Control feeding group and PBS gavage group • (3) Cell line of mouse insulinoma islet β cells (Beta-TC-6) • Blank control group, and palmitic acid (PA) intervention negative control group • (4) Mouse islet β primary cell • Blank control group, and PA intervention negative control group • Results are as follows:
(II) In the animal test, the therapeutic effect of the valeric acid on diabetes is observed by using Leptin receptor gene deficient db/db mice (purchased from Nanjing Junke Biotechnology Co., Ltd.) as test subjects.

[3] = system: db/db mouse islet tissues; test: Histopathology of pancreatic tissues of db/db mice (HE, immunofluorescence); format: in vivo
Procedure: During the subsequent test, in order to observe pathological morphologies of animal tissues, paraffin sections of mouse tissues were made and subjected to HE staining, immunohistochemical staining and immunofluorescence staining. […] Histopathological examination is also performed on the pancreatic tissues of db/db mice.

[4] = system: cell proliferation and differentiation pathway; test: WB and ELISA of classical proteins in a cell proliferation and differentiation pathway in mouse pancreatic tissues; format: in vivo, mice
Procedure: During the subsequent test, in order to observe pathological morphologies of animal tissues, paraffin sections of mouse tissues were made and subjected to HE staining, immunohistochemical staining and immunofluorescence staining. Also, mouse pancreatic tail tissues in a valeric acid intervention group and a control group were taken out from the −80° C. refrigerator and underwent TMT labeled quantitative proteome detection of the animal tissues, and differential proteins were subjected to a Western Blot test and a real-time fluorescence quantitative polymerase chain reaction (QRT PCR) test for the animal tissues to verify test results.

[5] = 8 weeks of intervention, HF-V vs HF-PBS control group

## CCCCC(=O)O [valeric acid]
[1]; [5]
  areas under OGTT-2h blood glucose curves: significantly lower
  fasting blood glucose: significantly lower
  fasting insulin contents: significantly lower
[1]; valeric acid 75 mg/kg/d gavage (as sodium valerate), vs HF-PBS group, after the sixth week
  weights of mice: significantly lower
[2]; compared with metformin and Harmine groups
  area under the OGTT curve: smallest
[2]; compared with the PBS control group
  decrease of fasting blood glucose: ~10 mmol/L
[2]; comparison among groups / vs PBS control group
  insulin secretion: best
[2]; vs PBS control group
  weights: decreased significantly
[3]; HE staining
  islet area: increased significantly
  islet cells: increased significantly
[3]; Ki67/insulin staining
  proportion of Ki67 (+): increased significantly
[3]; immunofluorescence
  ratio of the insulin to glucagon: increased significantly
[4]
  expression level of ERK1/2: significantly increased
  expression level of FoxO1A: significantly increased
  expression level of MafA: significantly increased
  expression level of Nkx6.1: significantly increased
  expression level of PDX1: significantly increased
  expression level of p-ERK1/2: significantly increased
